# Data: PubChem BioAssay AID1996
# Settings: buffer; pH 7.4; 200.0 µM
row,SMILES,solubility kinetic [µg/mL]
1,O=C(CCc1ccccc1)Nc1ccccc1C(=O)N1CCOCC1,> 50.8
2,COC(=O)CCN(C(=O)c1ccc([N+](=O)[O-])cc1)c1ccccn1,> 49.4
3,O=C(Nc1cc(C(F)(F)F)ccc1Cl)c1cccnc1,32.7
4,CC(=O)N1N=C(N)SC1(C)C,> 26
5,CCN(CC(=O)NC(=O)NC1CCCCC1)Cc1ccccc1,47
6,O=C(NC(=S)NCc1ccccc1)c1ccc(Br)cc1,< 0.4
7,CCc1ccc(S(=O)(=O)NC2CC(C)(C)NC(C)(C)C2)cc1,35.8
8,O=C(C1CCCN(S(=O)(=O)c2ccccc2)C1)N1CCCCC1 (stereo not given),50.4
9,CCN(CC(=O)NCc1ccc(F)cc1)CC(=O)Nc1ccc(Br)cc1F,58.9
10,CCOc1ccccc1/C=C(\C#N)C(=O)NC1CC1,31.3
11,CC(=O)c1cccc(NC(=O)N2CCOCC2)c1,> 37.2
12,Cn1cccc1C(=O)NCC(c1ccco1)N1CCCCC1 (stereo not given),> 45.2
13,O=C(/C=C/c1cccc(Cl)c1)NCCCN1CCOCC1,> 46.3
14,CCCCn1c(=O)c(C(=O)Nc2ccccc2N)c(O)c2ccccc21,< 0.3
15,O=C(NCc1cnn(-c2ccccc2)c1)C1CCC(=O)N(C2CC2)C1 (stereo not given),> 50.8
16,CCc1ccc(OCC(=O)Nc2ccncc2)cc1,> 38.4
17,O=CN1CCN(C(=S)NC(=O)c2ccc(Cl)cc2)CC1,44.3
18,O=C(CCNC(=O)c1ccco1)Nc1ccccc1,> 38.7

row,SMILES,solubility kinetic [µg/mL]
1,COCc1cc(=O)[nH]c(-c2csc(C)n2)n1,> 35.6
2,O=C(NC(=S)NC1CCS(=O)(=O)C1)c1ccccc1F (stereo not given),44.9
3,O=C(CSc1nccc(=O)[nH]1)NCc1ccc(Cl)cc1,> 46.5
4,Cc1nc(SCc2c(Cl)cccc2Cl)nc(OC(=O)N(C)C)c1C,2.2
5,N/C(=N\OC(=O)c1cccnc1)c1ccccc1Cl,38.9
6,O=C(CSc1nnc(Nc2ccccc2F)s1)NC1CCS(=O)(=O)C1 (stereo not given),> 60.4
7,O=[N+]([O-])c1cccc(CN2CCC(Cc3ccccc3)CC2)c1,17.3
8,Nc1c(N(CCO)C(=O)C2CCCC2)c(=O)[nH]c(=O)n1Cc1ccccc1,> 55.9
9,CCOC(=O)C1(CC2CC2)CCN(S(=O)(=O)/C=C/c2ccccc2)CC1,3.6
10,CCOC(=O)c1c(C)n(C(C)C)c2ccc(OC)cc12,15.1
11,[O-][n+]1ccc(OCc2ccccc2)cc1,> 30.2
12,CC1(C(=O)NNC(=S)NCC2CCCO2)CC1(Cl)Cl (stereo not given),> 48.9
13,CN1CCc2c1nc1ccccc1c2NC(=O)CN1CCCC1,28.9
14,COc1ccc(C(=O)Nc2ccccc2C(=O)NCc2ccco2)cc1,2.1
15,Cc1c(C(=O)O)sc2nc3n(c(=O)c12)CCC3,> 37.5
16,NNC(=O)c1ccc(N2CCCCCC2)c([N+](=O)[O-])c1,> 41.7
17,O=[N+]([O-])c1ccc(Cl)c(S(=O)(=O)/N=C(/Nc2cccnc2)c2ccccc2)c1,> 62.5
18,O=C1NCCCCC1NS(=O)(=O)c1cccc(C(F)(F)F)c1 (stereo not given),> 50.4

# Next, values leading:
row,solubility kinetic [µg/mL],SMILES
1,> 44.9,COc1ccc(C(=O)Nc2c(C)cc(C)cc2C)cc1OC
2,20.2,CCOc1ccc2nc(SCC(=O)NCc3ccc(OC)cc3)[nH]c2c1
3,0.8,O=C(Nc1cccc(Cl)c1)c1cc(-c2ccco2)on1
4,5.2,O=C(/C=C/c1ccc(OCc2cccc(Cl)c2)cc1)N1CCOCC1
5,> 34.2,Cc1nc(N)nc(N/N=C/c2ccccc2)n1
6,> 66.4,CCOc1ccccc1Nc1nnc(SCC(=O)N(C)C2CCS(=O)(=O)C2)s1 (stereo not given)
7,45.8,O=C1CCCC2=C1C(c1ccccc1)CC(=O)N2c1ccc(F)cc1F (stereo not given)
8,> 28.7,CNc1nc(=S)[nH]c2ccccc12
9,2.2,CCOc1ccc2nc(SCC(=O)Nc3nonc3C)[nH]c2c1
10,0.3,CCN(CC)c1nc2ccccc2n(Cc2cccc(OC)c2)c1=O
11,23.4,Cc1ccc(N2C(=O)C3C4C=CC(CC4)C3C2=O)cc1[N+](=O)[O-] (stereo not given)
12,1.3,COc1cc2c(C(=O)O)c(C)n(-c3ccccc3)c2c2ccccc12
13,29.3,Cc1cnc(NC(=O)c2ccccn2)s1
14,30.1,Cc1ccc(N2CCN(CC(O)COc3ccccc3)CC2)cc1 (stereo not given)
15,< 0.4,CCC(=O)c1ccc(OCC(=O)Nc2ccccc2N2CCCCC2)cc1
16,49.9,COc1ccc(CC(=O)N2CCN(c3ccccc3)CC2)cc1OC
17,< 0.3,Cn1c(SCc2ccccc2F)nc2ccccc2c1=O
18,1.2,Cc1cc(C)cc(C(=O)Nc2cc3c4c(c2)CC(=O)N4CCC3)c1
19,35,Cc1cc(N2C(=O)Cc3ccccc3C2=O)ccc1C(C)C
20,0.4,CNC(=O)c1c(NC(=O)c2cccc(C)c2)sc2c1CCC2
21,42.4,Cn1ccnc1SCC(=O)Nc1cccc([N+](=O)[O-])c1
22,< 0.3,Cc1cc2ncc(-c3ccccc3)nc2cc1C
23,< 0.2,CN(C)c1ccc(NC(=S)c2ccc3ccccc3n2)cc1
24,3.5,Cc1ccccc1N1CCN(Cc2cc3c(cc2[N+](=O)[O-])OCO3)CC1
25,4.9,CC(=O)c1ccc(-c2ccc(C(=O)Nc3nc(-c4ccccn4)cs3)o2)cc1

row,solubility kinetic [µg/mL],SMILES
1,32.7,Cc1cccc(-n2c(C)c(C)c3c(N)ncnc32)c1
2,45.8,CCN(Cc1ccccc1)C(=O)c1ccc(SC)cc1OC
3,39.1,N/C(=N\OC(=O)c1ccc(Br)o1)c1cccnc1
4,5.4,COC(=O)c1cc2c(=O)c3ccccc3oc2nc1C
5,7.4,Cc1cc(Br)cc2c1N(C)C(=O)C2(c1ccc(O)cc1)c1ccc(O)cc1
6,> 56.2,Cc1ccc(NC(=O)Cc2ccccc2)cc1S(=O)(=O)N1CCOCC1
7,> 47.4,CN(C)C(=O)COC(=O)c1ccccc1NC(=O)c1ccco1
8,> 47,CCc1nc(N[C@H](C(=O)O)C(C)C)c2oc3ccccc3c2n1
9,31.7,Cc1ccc(OCCn2cnc(Cl)c2Cl)cc1
10,> 48.7,O=c1c(Cc2ccc(F)cc2)c(O)ccn1CCc1ccccn1
11,30.6,Cc1cccc(CN2CCN(c3ncccn3)CC2)c1
12,13.8,CC(C)Oc1cccc(OCCN2C(=O)c3ccccc3C2=O)c1
13,12.5,CC1(C)Oc2ccc3ccc(=O)oc3c2C(/C=N/O)=C1Cl
14,16.7,Cc1ccnc(N2CCC(C(=O)NCc3ccc(F)cc3)CC2)n1
15,39.6,O=C(NCCCn1ccnc1)c1cc(-c2cccc(O)c2)on1
16,> 43.6,O=C(NCc1ccc2c(c1)OCO2)c1ccc(Cl)nc1
17,> 46.9,Cc1cccc(C)c1NC(=O)CN1C(=O)C2CC=CCC2C1=O (stereo not given)
18,< 0.3,Cc1ccc(C)c(Cn2cnc3c(oc4ccccc43)c2=O)c1
19,13.6,Cc1c(C(=O)N2CCN(S(=O)(=O)c3cccs3)CC2)oc2ccc(F)cc12
20,49.9,Cc1ccc(OCC(=O)NCCCNC(=O)c2cnccn2)cc1C
21,> 42.5,C/C(=N/NC(=O)c1ccncc1)c1ccc2c(c1)OCO2
22,35,CC(=O)Nc1nc(-c2ccc3c(c2)CC(C)N3C(=O)C2CC2)c(C)s1 (stereo not given)
23,> 50.5,CC(=O)NCCc1nc2cc(NC(=O)c3ccccc3)ccc2n1C
24,43.6,CS(=O)(=O)Nc1ccc(-c2cn3c(n2)SCC3)cc1
